Experimental data published in US7803563B2, “Method for screening the receptor-ligand binding in live cell” (Shanghai Institutes for Biological Sciences, CAS, priority 2006, dated 2010).
“Also recorded” adds a separate entry of the source.

What was measured:
Type in all cases: cell-based, Wistar rats
DRG = assay: Differential FEI labeling with FM2-10 and FM4-64 and KCl discharge; conditions: for numbers of endocytic vesicles induced by the two ligands: sequential ADP and 5-HT incubation with two FM dyes in the same cell, FIG. 8D
Description: This capability, for example, may be used to probe the vesicle sorting or trafficking inside the cells. It is known that GPCRs are active cargos for the internalized vesicles, and each different type of GPCR vesicles may have its own sorting pathway. To investigate different sorting paths of vesicles internalized under different conditions (time, ligand, etc.), vesicles can be labeled with FM dyes of different colors in the same cell.
As shown in the left panel, the cells in a dish is incubated with ADP and FM2-10 (green fluorophore). Then, the dye and ADP are washed away and a second incubation is performed with 5-HT and FM4-64 (red fluorophone). The cells are again washed and monitored with a confocal microscope, as illustrated in the right panel. Both FM2-10 and FM4-64 can be excited with a light at 488 nm. The emission of FM2-10 can be monitored at 530-600 nm, while the emission of FM4-64 can be monitored at >635 nm.
To test whether there is a common sorting pathways for the ADP-induced and 5-HT-induced endocytic vesicles, the cell was treated with 80 mM KCL for three minutes.

[1] = target: T1, receptor of the tyrosine kinase (RTK) family (Rattus norvegicus, UniProt P35739); assay: FM endocytosis imaging (FEI) of NGF-induced endocytosis in DRG neuron; conditions: NGF 50 ng/ml
T1 construct: endogenous in cells; host or cells: freshly dissociated small DRG neurons of Wistar rats
T1 sequence (P35739 33-799): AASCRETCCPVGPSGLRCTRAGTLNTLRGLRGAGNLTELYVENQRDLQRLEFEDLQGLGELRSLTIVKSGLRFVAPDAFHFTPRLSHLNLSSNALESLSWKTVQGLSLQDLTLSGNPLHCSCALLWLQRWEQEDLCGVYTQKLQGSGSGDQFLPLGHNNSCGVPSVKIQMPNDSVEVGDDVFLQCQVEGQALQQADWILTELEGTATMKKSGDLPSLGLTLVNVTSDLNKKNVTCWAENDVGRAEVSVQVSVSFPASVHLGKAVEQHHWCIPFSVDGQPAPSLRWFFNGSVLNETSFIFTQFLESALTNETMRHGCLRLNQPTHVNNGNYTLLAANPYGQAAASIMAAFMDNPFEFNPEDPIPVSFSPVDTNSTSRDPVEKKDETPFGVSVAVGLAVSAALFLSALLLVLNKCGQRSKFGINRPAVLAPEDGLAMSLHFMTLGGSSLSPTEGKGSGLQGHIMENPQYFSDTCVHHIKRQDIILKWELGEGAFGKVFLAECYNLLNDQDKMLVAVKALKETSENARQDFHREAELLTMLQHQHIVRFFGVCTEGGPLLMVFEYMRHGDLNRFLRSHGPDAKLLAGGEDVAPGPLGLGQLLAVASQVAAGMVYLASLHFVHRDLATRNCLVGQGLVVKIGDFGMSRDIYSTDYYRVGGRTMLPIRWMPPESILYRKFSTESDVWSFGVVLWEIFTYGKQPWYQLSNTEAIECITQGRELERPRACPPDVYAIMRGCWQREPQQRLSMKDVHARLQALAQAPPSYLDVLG
Description: (§1) Methods of the invention are based on FM endocytosis imaging (FEI). Confocal imaging can be used to measure the endocytosis induced by ligand-receptor binding (LRB). The principles of FM endocytosis imaging (FEI) method are: (i) an extracellular styryl FM dye (e.g., FM2-10) is taken up by the endocytic vesicles; and (ii) the FM molecule becomes 100 times brighter after uptake into vesicles. Thus, after proper stimulation, individual FM-loaded vesicles become visible images by standard confocal microscopy.
(§2) FIG. 2A illustrate a method of the invention. […] The ligand binds to the receptor and triggers receptor internalization (endocytosis). In the endocytosis process, the FM dye is internalized in endocytic vesicles. […]
(§3) The dye-containing vesicles in the cell may be imaged with a confocal fluorescence microscope, such as Zeiss LSM 510 (Germany). […]
(§4) The FM spots in each OS can be counted manually or automatically, e.g., with the aid of a software. […] Thus, the pixel sizes of the images may be properly adjusted so that FM spots corresponding to the vesicles are counted. One of ordinary skill in the art would appreciate that the images may be manipulated with techniques known in the art, e.g., smoothing, and the dynamic range (intensity range) may be adjusted so that majority (e.g., >90%) of the fluorescent spots are counted, with minimum interference from background noises. […]

DRG cells = assay: Multi-well (2×2) FEI protocol; conditions: 3 minutes, FIG. 9C
Description: FIGS. 9A-9B illustrate a method of the invention that could be used for high throughput evaluation of LRB-induced endocytosis in a multi-well (here 2×2) format. The multi-well plate is the same as a standard cell culture plate, except that a 0.17 mm-thick glass cover-slip constitutes part of the bottom in each well. In this example, single DRG cells were plated on the cover-slips in the wells.
Well (1,1) is incubated with ES and FM, without any ligand. Well (1,2) is incubated with 80 mM KCl and FM. Well (2,1) is incubated with 0.1 mM ADP and FM. Well (2,2) is incubated with ADP, Suramin, and FM. The incubations are all performed for 3 minutes.
Each well was scanned in sequence to obtain the images shown in FIG. 9B, and the endocytic signal (FM spots/cell) were analyzed and presented in histograms (FIG. 9C). […] Within each column, the top image is a transmission microscopy image, showing the cells in the well. The cell bracketed by the square in each well is chosen for image analysis.
The selected cells are scanned for FM images of single OSs (middle image) as well as the global image (bottom image) in each cell (FIG. 9B).

5HT-R = assay: FM endocytosis imaging (FEI) of 5-HT-induced endocytosis in DRG neuron
Description: as §1, §2, §3, §4

P2Y = assay: FM endocytosis imaging (FEI) of ADP-induced endocytosis in single DRG neuron
Description: as §1
FIG. 2A illustrate a method of the invention. […] The ligand binds to the receptor and triggers receptor internalization (endocytosis). In the endocytosis process, the FM dye is internalized in endocytic vesicles. Subsequently, the excess FM-dye may be washed away, leaving behind cells loaded with dye filled vesicles that are observable due to the fluorescent dye. Using this procedure, single vesicles in a single cell can be visualized by FM imaging. Note that while this example uses an FM dye, other suitable dyes may also be used without departing from the scope of the invention. […] Therefore, some methods of the invention may not include the washing step.
When a confocal microscope is used, the images may be takes in different optical slices (OSs) based on different focal depth. […] The data can be observed as the distribution of FM spots (individual vesicles) in each OS or as a global view, which is a projection overlaying the FM images from different OSs. An advantage of viewing the individual OS is the ability to track the location of the endocytic vesicles within the cell. This would permit studies of vesicle trafficking inside the cells. The advantage of the global view is the total number of vesicles are observed and, therefore, it provides a maximum sensitivity for assay use. For example, the global view may be used to monitor LRB events as a function of time—e.g., in real-time monitoring. […]
as §3

DRG neuron = assay: Time-resolved FEI recording (FIF recording)
Description: Methods of the invention, as noted above, can provide images of endocytic vesicles with relative ease. Thus, these methods for detecting LRB-induced endocytosis can be used in real time to monitor the endocytosis processes. […] In real-time applications, the FEI methods described above may be modified as follows to provide better FIF results: (i) the spatial resolution can be reduced, i.e., OS thickness increased, to increase detection sensitivity; (ii) the confocal scan can be made at a fixed z-position (normally near the middle of the cell); and (iii) cell images can be obtained in the presence of extracellular FM dye (i.e., no need to wash away the dye outside the cells). Under these conditions, FIF recording can rapidly acquire many x-y images of the cell after ligand binding in order to monitor the LRB induced events in real time.
FIG. 7A illustrates a setup for performing a real-time recording of LRB-induced events. As illustrated, the cell is bathed in an ES solution containing a fluorescent dye (e.g., FM2-10), and the OS is selected to a thickness of about […] to have a better sensitivity. […] This is to provide background readings before the ligand is added. From image frame K+1 to image frame m (i.e., from tk+1 to tm), the cell is incubated with the ligand (ADP) in the ES solution. […]
The fluorescence intensity is proportional to the total number of endocytic vesicles. […]

δ-opioid-DOR = target: T2, δ-opioid-DOR (Rattus norvegicus, UniProt P33533)
T2 construct: endogenous in cells; host or cells: freshly dissociated small DRG neurons of Wistar rats
T2 sequence (P33533 whole entry): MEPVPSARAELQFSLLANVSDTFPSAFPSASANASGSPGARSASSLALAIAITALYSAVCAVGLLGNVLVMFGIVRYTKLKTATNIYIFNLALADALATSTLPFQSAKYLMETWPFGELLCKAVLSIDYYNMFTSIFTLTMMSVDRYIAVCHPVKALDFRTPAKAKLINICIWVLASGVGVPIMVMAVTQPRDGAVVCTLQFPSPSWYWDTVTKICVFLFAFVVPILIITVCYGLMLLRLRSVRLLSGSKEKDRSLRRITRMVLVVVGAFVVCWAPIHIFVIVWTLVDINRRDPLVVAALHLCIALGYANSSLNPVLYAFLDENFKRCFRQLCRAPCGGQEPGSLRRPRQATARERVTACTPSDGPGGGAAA

Compound: [Cl-].[K+] [KCl]
- green/5HT-R vesicles discharged (DRG; 80 mM KCL for three minutes, 5-HT-induced vesicles, FIG. 8E): about 37%
- red/P2Y vesicles discharged (DRG; 80 mM KCL for three minutes, ADP-induced vesicles, FIG. 8E): about 43%
- vesicles lost after the KCl treatment (DRG; 80 mM KCL for three minutes, FIG. 8C): significant amount of vesicles were lost

Compound: nerve growth factor [NGF]
- endocytic vesicles (FM spots) [1]: substantial increase

Compound: Cc1ccc(C(=O)Nc2ccc(S(=O)(=O)O)c3cc(S(=O)(=O)O)cc(S(=O)(=O)O)c23)cc1NC(=O)c1cccc(NC(=O)Nc2cccc(C(=O)Nc3cc(C(=O)Nc4ccc(S(=O)(=O)O)c5cc(S(=O)(=O)O)cc(S(=O)(=O)O)c45)ccc3C)c2)c1 [suramin]
- inhibition of ADP-induced endocytosis (FM spots/cell) (DRG cells; ADP, Suramin, and FM): inhibited

Compound: NCCc1c[nH]c2ccc(O)cc12 [5-HT, 5-hydroxytryptamine]
- endocytic vesicles (FM spots) (5HT-R; 5-HT 0.1 mM vs control incubated with ES 3 minutes): substantial increases
- number of FM spots relative to those induced by AR, GABAB, and mAChR (5HT-R; ligands separately introduced, FIG. 6B): 2-3 times
- numbers of endocytic vesicles induced by the two ligands (DRG): similar

Compound: Nc1ncnc2c1ncn2[C@@H]1O[C@H](COP(=O)(O)OP(=O)(O)O)[C@@H](O)[C@H]1O [ADP]
- distribution of endocytic vesicles, medulla compared with periphery (P2Y; ADP-induced vesicles in DRG neuron, histogram FIG. 3C): Almost twice as many
- number of FM spots relative to those induced by AR, GABAB, and mAChR (P2Y; DRG neuron, ligands separately introduced, FIG. 6B): 2-3 times
- number of FM spots (endocytic vesicles) (P2Y; FM+ADP 3 min vs FM+ES control 3 min, single DRG neuron, FIG. 3A/3B): increased dramatically; also recorded: dramatic increase
- number of fluorescent spots (endocytic vesicles) in the cell (DRG neuron; image at t=tm (ADP) vs t=tk (control), DRG neuron): substantial increase
- fluorescence intensity (number of endocytic vesicles) inside the cell (DRG neuron; time course, average of 21 experiments, extracellular FM dye present): significantly increases
- numbers of endocytic vesicles induced by the two ligands (DRG): similar
- endocytosis (FM spots/cell) (DRG cells; 0.1 mM ADP and FM): induced significant endocytosis

Compound: CC(C)[C@H](NC(=O)[C@H](CCC(=O)O)NC(=O)[C@H](Cc1ccccc1)NC(=O)[C@@H](C)NC(=O)[C@@H](N)Cc1ccc(O)cc1)C(=O)N[C@H](C(=O)NCC(=O)O)C(C)C [deltorphin]
- number of FM spots relative to those induced by AR, GABAB, and mAChR (δ-opioid-DOR): 2-3 times
